Data from patent US4029799A, “Certain analgesically active substituted benzyl pyridine compounds” (Laboratorios Made, S.A., priority 1975, dated 1977).

Experiments:
[1] = system: female albino I.C.R. Swiss mice; assay: Analgesic activity, Hot Plate Test at 55° C.; type: in vivo; conditions: for Jump-off time: 30 minutes after administration, average ± standard mean error, control 77 ± 9.272
Experimental: the analgesic activity of 2-(3,4,5-trimethoxybenzyl)-3,4-dimethylpyridine compound (I) was investigated in female albino I.C.R. Swiss mice weighing 24± 2 g. For this the Hot Plate Test was used at 55° C. 4 groups of mice each comprising 10 animals, were assembled. The distribution of the groups was according to the following scheme:-
Group 1-- Control - 0.2 ml of distilled H2 O
Group 2-- Compound I-0.2 ml of a solution of 2-(3,4,5-trimethoxybenzyl)-3,4-dimethylpyridine (I), 3 mg/ml.
Group 3-- Compound I-0.2 ml of a solution of 2-(3,4,5-trimethoxybenzyl)-3,4-dimethylpyridine (I), 6 mg/ml.
Group 4-- Dextropropoxyphene - 0.2 ml of a solution of dextropropoxyphene, 6 mg/ml.
The products were injected intraperitoneally, and the measurements of analgesia were made 30 minutes after the administration of the drugs. Note was taken of the time taken for an animal to jump off the hot plate.

[2] = system: I.C.R. Swiss mice; assay: Acute toxicity (i.p.), method of Lichfield and Wilcoxon; type: in vivo, both sexes
Experimental: (§1) acute toxicity studies were carried out in I.C.R. Swiss mice weighing 24± 2 g, of both sexes. The products were administered intraperitoneally (i.p.). Acute toxicity was calculated by the method of Lichfield and Wilcoxon.

[3] = as above; type: in vivo, I.C.R. Swiss mice, both sexes; conditions: mouse, in vivo, ip, mice, read-out: Lethal dose 50 (LD50)
Experimental: as §1

With `COc1cc(Cc2nccc(C)c2C)cc(OC)c1OC` [Compound I, 2-(3,4,5-trimethoxybenzyl)-3,4-dimethylpyridine] the “Jump-off time” value ([1]; 25 mg/kg i.p.) was 77 ± 8.203 s, the “Significance (jump-off time)” value ([1]; 25 mg/kg i.p., N.S. or p value) was “N.S” and the “Jump-off time” value ([1]; 50 mg/kg i.p.) was 133.5 ± 12.581 s. The “analgesic activity compared with d-propoxyphene” value ([1]; for equal doses, Hot Plate Test) was “more analgesic than d-propoxyphene”, the “therapeutic index compared with dextropropoxyphene” value ([1]; from analgesia and acute toxicity in mice) was “greater than that of dextropropoxyphene” and the “toxicity compared with d-propoxyphene” value [2] was “less toxic”. For the same compound, the LD50 [3] was 250 mg/kg.

In the case of `CCC(=O)O[C@](Cc1ccccc1)(c1ccccc1)[C@H](C)CN(C)C` [Dextropropoxyphene, reference compound], the “Jump-off time” value ([1]; 50 mg/kg i.p.) was 102.4 ± 10.302 s.
